One series can be described thus: in vivo. The conditions noted are these: for concentration at 60 min / concentration at 5 min / concentration at 30 min / AUC(0-t): female, FVB (wildtype), mouse, in vivo; for AUC(0-t): iv. As to the method:
The following elacridar nanoparticle suspension was used in these experiments: 5% elacridar w/w plus 1% w/w TPGS, where 2 ml of NP formulation was diluted with 8 ml of 20% TPGS to give a final elacridar concentration of 10 mg/ml.
The drug was mixed, sonicated and administered within 1 h. The dose used was 50 mg/kg (10 μl/g).
The drug was mixed by vortex and administered within 1.5 h. The dose used was 33 mg/kg (10 μl/g).
The drug was administered within 1 h of preparation. The dose used was 5 mg/kg (5 μl/g).
Non-transgenic (wildtype) FVB mice, females, aged 8 to 10 weeks were used. Animals received food and water ad libitum. Mice in the treatment group (n=5) received elacridar NP formulation orally by gavage in the morning (9-10 am). Mice in the control group (n=5) received no elacridar. All mice (treatment and control group) received the therapeutic agent by i.v. injection in the tail vein in the afternoon (3-4 pm). Blood samples (50 μl) were drawn by bleeding from the tip of the tail at 5 min and 30 min after drug administration. At 1 h after API administration the animals were anesthetized using isoflurane and blood was drawn by cardiac puncture. Next, the animal was killed by cervical dislocation and the brains were harvested. Blood was kept on ice until centrifugation (5 min at 5000 g) within 2 h. Brains were kept on ice for weighing and stored at −20° C. until homogenization. Brains were homogenized in 3 ml of 1% w/v of bovine serum albumin in water.
The mice received elacridar at the standard dose of 100 mg/kg. […] The i.v. administration route was selected for the therapeutic agent in order to achieve the most similar plasma exposure of the therapeutic agent between animals receiving therapeutic agent alone or therapeutic agent with elacridar.
Samples were pre-treated as follows. Plasma (5 to 100 μl) was made up to 100 μl with blank human plasma or brain homogenate (100 μl) and pipetted into a 2 ml eppendorf vial. 50 μl of the internal standard (IS) solution (1000 nM of the deuterated analyte) in acetonitrile:water (30:70; v/v) was added. 1000 μl of diethyl ether was added. Tubes were vigorously mixed for at least 5 min then centrifuged (5 min at 5000 g) before being placed in a bath of ethanol with dry-ice in order to freeze the aqueous bottom layer. The organic supernatant was decanted into a clean 1.5 ml Brand vial and evaporated under vacuum in a Speed-Vac (Savant).
For HPLC-MS/MS analyses, the HPLC systems consisted of an Ultimate DGP-3600A pump with a SRD-3600 Solvent Rack and a model WPS-3000TSL autosampler (Dionex, Sunnyvale, Calif., USA). The HPLC column (100×2.1 mm) was packed with 3 um C18 Extend material. The column effluent was guided to an electrospray ionization (ESI) source of an AP13000 mass spectrometer (ABSciex). The mobile phase composition was: Mobile phase A was 0.1% formic acid in water; and Mobile phase B was Methanol (LC-MS quality, Merck).
Pharmacokinetic analyses were performed using the Microsoft Excel add-in program PKsolver (see e.g., Ward K W et al., J Pharmacol Exp Ther 2004; 310: 703-9, which is incorporated herein in its entirety). Calculations for oral administrations were done by the non-compartmental analyses—extravascular model, whereas we used the non-compartmental analysis—bolus model for i.v. injections. The maximum plasma levels (Cmax) were calculated by comparing the means of the plasma levels at each time point. The Tmax is considered the time point at which the Cmax was reached. The half-life (T½) was calculated from the final log-linear part of the plasma concentration-time curves. The area-under-the-curve for the plasma concentration (plasma AUC) was calculated using the linear trapezoidal rule. Both the AUC from time=0 to the last sampling point (48 h) as well as the AUC extrapolated to infinity was calculated. The oral bioavailability was calculated based on the AUC(0-inf) values. Student t-test was used to compare the means of groups where applicable.

A short description of series [1]: Therapeutic agent brain penetration studies (brain concentration). It is filed as in vivo, wildtype FVB mice. The conditions noted are these: for concentration at 1 h: female; for concentration at 1 h / Brain concentration of loperamide, individual animals / Brain concentration of loperamide, mean: 1 h. As to the method: The drug was administered within 1 h of preparation.
Animals received food and water ad libitum.
Samples were pre-treated as follows. […] 1000 μl of diethyl ether was added.

[2] abbreviates: Docetaxel plasma concentration, mean.
Where [3] appears, read: loperamide 5 mg/kg i.v. with elacridar TPGS NP 100 mg/kg p.o. about 6 h before.
Where [4] appears, read: imatinib with elacridar, 30 min.
The mark [5] stands for this setting: imatinib with elacridar, 60 min.

Usually AUC(0-t) stands for exposure summed from dosing to a finite time, without extrapolation to infinity. A high value points to more exposure.

Values joined by “and” are separate entries in the source; they are usually repeats but may differ in a detail not shown here. Equal values may be shown once. Read-outs that look alike come from different tables or passages of the source.

`CC(=O)O[C@@]12CO[C@@H]1C[C@H](O)[C@@]1(C)C(=O)[C@H](O)C3=C(C)[C@@H](OC(=O)[C@H](O)[C@@H](NC(=O)OC(C)(C)C)c4ccccc4)C[C@@](O)([C@@H](OC(=O)c4ccccc4)[C@H]21)C3(C)C` [docetaxel] had a concentration at 60 min in the series “in vivo” (Docetaxel plasma concentration, individual animals) of 3030 ng/mL. In the series “in vivo” (setting [2]), this compound registered a concentration at 5 min of 206000 ng/mL, a concentration at 30 min of 12200 ng/mL and a concentration at 60 min of 2570 ng/mL. Besides, the AUC(0-t) in “in vivo” (33 mg/kg, Docetaxel plasma AUC(0-1 h), individual animals) is 54100 ng·h/mL. This compound also had an AUC(0-t) in “in vivo” (33 mg/kg, Docetaxel plasma AUC(0-1 h), mean) of 53300 ng·h/mL. In addition, the complications of dosing result in series [1] (mouse, in vivo, iv) is given as “without complications”.

On to `CN(C)C(=O)C(CCN1CCC(O)(c2ccc(Cl)cc2)CC1)(c1ccccc1)c1ccccc1` [loperamide], for which the “change of plasma AUC by concomitant elacridar dosing” value in the series “in vivo” (AUC 5 min to 1 h, with vs without elacridar NP) was “remained unchanged”. Moreover, the concentration at 5 min in the series “in vivo” (5 mg/kg, Loperamide plasma concentration, mean, loperamide alone, 5 min) was 1030 ng/mL; in “in vivo” (Loperamide plasma concentration, mean, loperamide with elacridar, 5 min), 989 ng/mL. The concentration at 30 min in “in vivo” (5 mg/kg, Loperamide plasma concentration, mean, loperamide alone, 30 min) was determined as 221 ng/mL; in “in vivo” (Loperamide plasma concentration, mean, loperamide with elacridar, 30 min) it was 184 ng/mL. The concentration at 60 min in “in vivo” (5 mg/kg, Loperamide plasma concentration, mean, loperamide alone, 60 min) amounted to 81.4 ng/mL; in the series “in vivo” (Loperamide plasma concentration, mean, loperamide with elacridar, 60 min), 140 ng/mL. Also, the AUC(0-t) in the series “in vivo” (5 mg/kg, Loperamide plasma AUC(0-1 h), individual animals, loperamide alone) was 740 ng·h/mL; in “in vivo” (5 mg/kg, Loperamide plasma AUC(0-1 h), individual animals, loperamide with elacridar), 704 ng·h/mL; in the series “in vivo” (5 mg/kg, Loperamide plasma AUC(0-1 h), mean, loperamide alone), 747 ng·h/mL; in the series “in vivo” (5 mg/kg, Loperamide plasma AUC(0-1 h), mean, loperamide with elacridar) it was 744 ng·h/mL. For the same compound, the “Loperamide plasma AUC(0-1 h), individual animals” value in “in vivo” (loperamide alone) is 43377.5 ng·min/mL and 43440.0 ng·min/mL and 47625.0 ng·min/mL and 45132.5 ng·min/mL; in “in vivo” (loperamide with elacridar), 44405.0 ng·min/mL and 46040.0 ng·min/mL and 45978.8 ng·min/mL. Further, the “Loperamide plasma concentration, individual animals” value in “in vivo” (loperamide alone, 5 min) was 2500.0 ng/mL and 430.0 ng/mL and 599.0 ng/mL and 679.0 ng/mL and 925.0 ng/mL; in the series “in vivo” (loperamide alone, 30 min), 191.0 ng/mL and 166.0 ng/mL and 168.0 ng/mL and 354.0 ng/mL and 226.0 ng/mL; in the series “in vivo” (loperamide alone, 60 min), 111.0 ng/mL and 87.5 ng/mL and 88.0 ng/mL and 26.0 ng/mL and 94.5 ng/mL; in “in vivo” (loperamide with elacridar, 5 min), 1220.0 ng/mL and 306.0 ng/mL and 376.0 ng/mL and 511.0 ng/mL and 2530.0 ng/mL; in “in vivo” (loperamide with elacridar, 30 min), 115.0 ng/mL and 178.0 ng/mL and 163.0 ng/mL and 282.0 ng/mL; in “in vivo” (loperamide with elacridar, 60 min), 106.0 ng/mL and 134.0 ng/mL and 270.5 ng/mL and 48.3 ng/mL. Besides, the complications of dosing entry in series [1] (FVB mice, i.v., control group (no elacridar)) is reported as “went smoothly”; in series [1] (FVB mice, loperamide 5 mg/kg i.v. and elacridar NP 100 mg/kg p.o.) it was “one animal died within 5 minutes after drug administration, whereas another animal had to be sacrificed at 45 min”. Further, the concentration at 1 h worked out at 2910 ng/g in series [1] (FVB (wildtype), mouse, in vivo, loperamide 5 mg/kg i.v. with elacridar TPGS NP 100 mg/kg p.o. about 6 h before, read-out: Brain concentration of loperamide, individual animals); 73 ng/g in series [1] (FVB, mouse, in vivo, 5 mg/kg, loperamide 5 mg/kg i.v. alone, read-out: Brain concentration of loperamide, mean); 3700 ng/g in series [1] (FVB, mouse, in vivo, loperamide 5 mg/kg i.v. with elacridar TPGS NP 100 mg/kg p.o. about 6 h before, read-out: Brain concentration of loperamide, mean). For the same compound, the “Brain concentration of loperamide, individual animals” value in series [1] (loperamide 5 mg/kg i.v. alone) was 83.8 ng/g and 79.4 ng/g and 84.1 ng/g and 78.1 ng/g and 41.6 ng/g; in series [1] (setting [3]), 4376.5 ng/g and 4288.7 ng/g and 3981.2 ng/g and 2933.5 ng/g. Further, the “Brain concentration of loperamide, mean” value in series [1] (loperamide 5 mg/kg i.v. alone) is reported as 73.4 ng/g; in series [1] (setting [3]), 3697.8 ng/g. For the same compound, in series [1] (with vs without elacridar TPGS NP 100 mg/kg p.o., brain at 1 h), the “increase of brain penetration by concomitant elacridar NP” value worked out at 50 fold.

With imatinib, the “Imatinib plasma concentration, individual animals” value is 49100 ng/mL and 50400 ng/mL and 38200 ng/mL and 61300 ng/mL and 48900 ng/mL in the series “in vivo” (imatinib alone, 5 min); 6590 ng/mL and 11500 ng/mL and 7690 ng/mL and 13200 ng/mL and 11600 ng/mL in “in vivo” (imatinib alone, 30 min); 1920 ng/mL and 1260 ng/mL and 2350 ng/mL and 2050 ng/mL and 2760 ng/mL in “in vivo” (imatinib alone, 60 min); 90800 ng/mL and 43500 ng/mL and 50000 ng/mL and 34400 ng/mL and 37900 ng/mL in the series “in vivo” (imatinib with elacridar, 5 min); 11000 ng/mL and 7860 ng/mL and 11700 ng/mL and 8910 ng/mL and 12600 ng/mL in the series “in vivo” (setting [4]); 3630 ng/mL and 5580 ng/mL and 3840 ng/mL and 4710 ng/mL and 4100 ng/mL in “in vivo” (setting [5]). Further, the “Imatinib plasma concentration, mean” value was determined as 49580.0 ng/mL in “in vivo” (imatinib alone, 5 min); 10116.0 ng/mL in “in vivo” (imatinib alone, 30 min); 2068.0 ng/mL in the series “in vivo” (imatinib alone, 60 min); 51320.0 ng/mL in “in vivo” (imatinib with elacridar, 5 min); 10414.0 ng/mL in “in vivo” (setting [4]); 4372.0 ng/mL in “in vivo” (setting [5]). Also, the complications of dosing result in series [1] (mouse, in vivo, iv) was “without complications”.

(Values after patent publication US20220133679A1, “EFFLUX INHIBITOR COMPOSITIONS AND METHODS OF TREATMENT USING THE SAME” (Izumi Technology, LLC, priority 2012, published 2022).)
